Legend:
[1] = compound: CCN1CCN(Cc2ccc(Nc3ncc(F)c(-c4cc(F)c5nc(C)n(C(C)C)c5c4)n3)nc2)CC1; assay: increase in dead-cell fraction, 72 h; higher = more death;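 also: breast cancer cell lines in 384-well plates, stained with Hoechst plus LIVE/DEAD far red dye and imaged, cells above an LDR intensity threshold counted dead, Hoechst-negative corpses included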
[2] = compound: CCOc1cc2ncc(C#N)c(Nc3ccc(OCc4ccccn4)c(Cl)c3)c2cc1NC(=O)/C=C/CN(C)C [Neratinib/HKI272]; assay: as above
[3] = compound: CC(=O)c1c(C)c2cnc(Nc3ccc(N4CCNCC4)cn3)nc2n(C2CCCC2)c1=O; assay: as above
[4] = compound: CN(C)C(=O)c1cc2cnc(Nc3ccc(N4CCNCC4)cn3)nc2n1C1CCCC1 [LEE011/Ribociclib]; assay: as above
[5] = compound: T1, CN1CC[C@H](c2c(O)cc(O)c3c(=O)cc(-c4ccccc4Cl)oc23)[C@H](O)C1 [Flavopiridol]; assay: as above
[6] = compound: CCc1cnn2c(NCc3ccc[n+]([O-])c3)cc(N3CCCC[C@H]3CCO)nc12; assay: as above
[7] = compound: CC(=O)c1c(C)c2cnc(Nc3ccc(N4CCN(CCOCCOCCOCCNC(=O)COc5cccc6c5C(=O)N(C5CCC(=O)NC5=O)C6=O)CC4)cn3)nc2n(C2CCCC2)c1=O [BSJ-03-123]; assay: as above
[8] = compound: T2, CN(C)C/C=C/C(=O)Nc1ccc(C(=O)Nc2cccc(Nc3ncc(Cl)c(-c4c[nH]c5ccccc45)n3)c2)cc1 [THZ1]; assay: as above
[9] = compound: CN(C)C/C=C/C(=O)Nc1ccc(C(=O)N2CCC[C@@H](Nc3ncc(Cl)c(-c4c[nH]c5ccccc45)n3)C2)cc1 [THZ531]; assay: GR value, 72 h; higher = faster growth (1 = untreated, <0 = killing);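 also: breast cancer and non-malignant breast epithelial lines, nine half-log doses, viable cells counted by Hoechst and LIVE/DEAD dye imaging versus time-zero plates and DMSO controls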
[10] = compound: CC(=O)c1c(C)c2cnc(Nc3ccc(N4CCNCC4)cn3)nc2n(C2CCCC2)c1=O; assay: as above
[11] = compound: T1, Flavopiridol; assay: as above
[12] = compound: T2, THZ1; assay: as above

For HCC1143, the “increase in dead-cell fraction” value ([1]; 0.001 µM) was -0.0049, the “increase in dead-cell fraction” value ([1]; 0.003162 µM) was -0.0032 and the “increase in dead-cell fraction” value ([1]; 0.01 µM) was -0.0047. For the same cell line, the “increase in dead-cell fraction” value ([1]; 0.03162 µM) was 0.0015, the “increase in dead-cell fraction” value ([1]; 0.1 µM) was -0.003 and the “increase in dead-cell fraction” value ([1]; 0.3162 µM) was -0.0023. For the same cell line, the “increase in dead-cell fraction” value ([1]; 1 µM) was 0.0074, the “increase in dead-cell fraction” value ([1]; 3.162 µM) was 0.0254 and the “increase in dead-cell fraction” value ([1]; 10 µM) was 0.124. The “increase in dead-cell fraction” value ([2]; 0.0003162 µM) was 0.003, the “increase in dead-cell fraction” value ([2]; 0.001 µM) was 0.0005 and the “increase in dead-cell fraction” value ([2]; 0.003162 µM) was 0.006. For the same cell line, the “increase in dead-cell fraction” value ([2]; 0.01 µM) was 0.0143, the “increase in dead-cell fraction” value ([2]; 0.03162 µM) was 0.0116 and the “increase in dead-cell fraction” value ([2]; 0.1 µM) was 0.0306. For the same cell line, the “increase in dead-cell fraction” value ([2]; 0.3162 µM) was 0.0437, the “increase in dead-cell fraction” value ([2]; 1 µM) was 0.0748 and the “increase in dead-cell fraction” value ([2]; 3.162 µM) was 0.261. The “increase in dead-cell fraction” value ([3]; 0.0003162 µM) was 0.0048, the “increase in dead-cell fraction” value ([3]; 0.001 µM) was 0.0021 and the “increase in dead-cell fraction” value ([3]; 0.003162 µM) was -0.0047. For the same cell line, the “increase in dead-cell fraction” value ([3]; 0.01 µM) was -0.0052, the “increase in dead-cell fraction” value ([3]; 0.03162 µM) was -0.0059 and the “increase in dead-cell fraction” value ([3]; 0.1 µM) was -0.0023. For the same cell line, the “increase in dead-cell fraction” value ([3]; 0.3162 µM) was -0.0052, the “increase in dead-cell fraction” value ([3]; 1 µM) was -0.0085 and the “increase in dead-cell fraction” value ([3]; 3.162 µM) was 0.0036. The “increase in dead-cell fraction” value ([4]; 0.001 µM) was -0.0077, the “increase in dead-cell fraction” value ([4]; 0.003162 µM) was 0.0012 and the “increase in dead-cell fraction” value ([4]; 0.01 µM) was 0. For the same cell line, the “increase in dead-cell fraction” value ([4]; 0.03162 µM) was 0.001, the “increase in dead-cell fraction” value ([4]; 0.1 µM) was 0.0077 and the “increase in dead-cell fraction” value ([4]; 0.3162 µM) was 0.0065. For the same cell line, the “increase in dead-cell fraction” value ([4]; 1 µM) was 0.0007, the “increase in dead-cell fraction” value ([4]; 3.162 µM) was 0.009 and the “increase in dead-cell fraction” value ([4]; 10 µM) was 0.0365. The “increase in dead-cell fraction” value ([5]; 0.0001 µM) was -0.0098, the “increase in dead-cell fraction” value ([5]; 0.0003162 µM) was -0.0008 and the “increase in dead-cell fraction” value ([5]; 0.001 µM) was -0.0018. For the same cell line, the “increase in dead-cell fraction” value ([5]; 0.003162 µM) was 0.0048, the “increase in dead-cell fraction” value ([5]; 0.01 µM) was 0.0022 and the “increase in dead-cell fraction” value ([5]; 0.03162 µM) was -0.0053. For the same cell line, the “increase in dead-cell fraction” value ([5]; 0.1 µM) was 0.0185, the “increase in dead-cell fraction” value ([5]; 0.3162 µM) was 0.0656 and the “increase in dead-cell fraction” value ([5]; 1 µM) was 0.228. For the same cell line, the “increase in dead-cell fraction” value ([6]; 0.0001 µM) was -0.0025, the “increase in dead-cell fraction” value ([6]; 0.0003162 µM) was -0.0033 and the “increase in dead-cell fraction” value ([6]; 0.001 µM) was 0.0002. The “increase in dead-cell fraction” value ([6]; 0.003162 µM) was -0.0039, the “increase in dead-cell fraction” value ([6]; 0.01 µM) was 0.006 and the “increase in dead-cell fraction” value ([6]; 0.03162 µM) was 0.248. For the same cell line, the “increase in dead-cell fraction” value ([6]; 0.1 µM) was 0.258, the “increase in dead-cell fraction” value ([6]; 0.3162 µM) was 0.254 and the “increase in dead-cell fraction” value ([6]; 1 µM) was 0.239. For the same cell line, the “increase in dead-cell fraction” value ([7]; 0.001 µM) was 0.0033, the “increase in dead-cell fraction” value ([7]; 0.003162 µM) was 0.0019 and the “increase in dead-cell fraction” value ([7]; 0.01 µM) was -0.0022. The “increase in dead-cell fraction” value ([7]; 0.03162 µM) was -0.0018, the “increase in dead-cell fraction” value ([7]; 0.1 µM) was 0.0104 and the “increase in dead-cell fraction” value ([7]; 0.3162 µM) was 0.011. For the same cell line, the “increase in dead-cell fraction” value ([7]; 1 µM) was 0.0065, the “increase in dead-cell fraction” value ([7]; 3.162 µM) was 0.0186 and the “increase in dead-cell fraction” value ([7]; 10 µM) was 0.102. The “increase in dead-cell fraction” value ([8]; 0.0001 µM) was -0.0073, the “increase in dead-cell fraction” value ([8]; 0.0003162 µM) was -0.0031 and the “increase in dead-cell fraction” value ([8]; 0.001 µM) was -0.0053. For the same cell line, the “increase in dead-cell fraction” value ([8]; 0.003162 µM) was -0.0066, the “increase in dead-cell fraction” value ([8]; 0.01 µM) was 0.0051 and the “increase in dead-cell fraction” value ([8]; 0.03162 µM) was 0.0382. The “increase in dead-cell fraction” value ([8]; 0.1 µM) was 0.162, the “increase in dead-cell fraction” value ([8]; 0.3162 µM) was 0.192 and the “increase in dead-cell fraction” value ([8]; 1 µM) was 0.165. The GR value ([9]; 0.0001 µM) was 0.974 GR, the GR value ([9]; 0.0003162 µM) was 0.976 GR and the GR value ([9]; 0.001 µM) was 1.03 GR. For the same cell line, the GR value ([9]; 0.003162 µM) was 0.957 GR, the GR value ([9]; 0.01 µM) was 1.02 GR and the GR value ([9]; 0.03162 µM) was 0.937 GR. It also gave a GR value ([9]; 0.1 µM) of 0.689 GR, a GR value ([9]; 0.3162 µM) of -0.125 GR and a GR value ([9]; 1 µM) of -0.228 GR. It also gave a GR value ([10]; 0.0003162 µM) of 0.997 GR, a GR value ([10]; 0.001 µM) of 1.01 GR and a GR value ([10]; 0.003162 µM) of 1.01 GR. It also gave a GR value ([10]; 0.01 µM) of 0.955 GR, a GR value ([10]; 0.03162 µM) of 0.793 GR and a GR value ([10]; 0.1 µM) of 0.652 GR. For the same cell line, the GR value ([10]; 0.3162 µM) was 0.503 GR, the GR value ([10]; 1 µM) was 0.392 GR and the GR value ([10]; 3.162 µM) was 0.275 GR. It also gave a GR value ([11]; 0.0001 µM) of 1 GR, a GR value ([11]; 0.0003162 µM) of 1.04 GR and a GR value ([11]; 0.001 µM) of 0.952 GR. The GR value ([11]; 0.003162 µM) was 0.964 GR, the GR value ([11]; 0.01 µM) was 0.988 GR and the GR value ([11]; 0.03162 µM) was 0.933 GR. For the same cell line, the GR value ([11]; 0.1 µM) was 0.722 GR, the GR value ([11]; 0.3162 µM) was 0.175 GR and the GR value ([11]; 1 µM) was -0.31 GR. It also gave a GR value ([12]; 0.0001 µM) of 0.953 GR, a GR value ([12]; 0.0003162 µM) of 1.04 GR and a GR value ([12]; 0.001 µM) of 1 GR. It also gave a GR value ([12]; 0.003162 µM) of 0.989 GR, a GR value ([12]; 0.01 µM) of 0.908 GR and a GR value ([12]; 0.03162 µM) of 0.303 GR. The GR value ([12]; 0.1 µM) was -0.271 GR, the GR value ([12]; 0.3162 µM) was -0.266 GR and the GR value ([12]; 1 µM) was -0.31 GR.

Source: the supplement of paper PMC9663587
